Measured values as given in patent publication US10913933B2, “Bioengineered liver constructs and methods relating thereto” (Wake Forest University Health Sciences, priority 2013, dated 2021).

Tested on: bioengineered liver organoids
Conditions: human, 48 h
Description: For hepatocyte functional analysis, culture medium was collected after the three week incubation. The media was stored at −80° C. until it was used for analysis. For analyzing albumin synthesis, albumin ELISA assay (Bethyl Laboratories Inc.) was carried out on each samples in triplicates. The albumin concentrations were normalized per mg of DNA. The media was also analyzed in the same fashion for urea secretion using a Quantichrome™ Urea Assay Kit (BioAssay Systems, Inc.). […] After 48 hours, media samples were collected and analyzed by mass spectrometry (FIGS. 3C and 3D), and compared with standards of individual metabolites (FIGS. 3A and 3B).
In a second experiment, the liver organoids were prepared as described above in Example 1, Section A using LPC seeding and maintenance media. Alternatively, the organoids can be prepared using minimal LPC medium or hFLP medium instead. After seeding with hFLPCs, the discs were cultured for 3 weeks, with harvesting of cells at 1 week and 3 weeks for immunohistochemical and molecular analysis. Assays assessing albumin and urea synthesis and IHC analyses were performed as described above. Gene expression analyses were performed by RT-PCR after harvesting the organoids. Drug metabolism activity in the organoids was assessed after 1 week and 3 weeks of culturing. […] After 3, 6, 12, and 24 hours, media samples were collected and analyzed by mass spectrometry.

Phase-1 metabolites found in media: 7-hydroxycoumarin
Structure (SMILES): CCOc1ccc2ccc(=O)oc2c1 [7-ethoxycoumarin]
